Source: patent publication US12527757B2, “Nanoemulsion of 18BETA-glycyrrhetinic acid” (ATSO CORPORATE AFFAIRS, S.A. DE C.V., priority 2019, dated 2026)
Like-named read-outs stand apart in the source and are kept apart here.

Columns and labels:
Rotavirus = conditions: infected cultures; cited from earlier work
HeLa cells [1] = assay: Alkaline comet assay (single cell electrophoresis), HeLa; assay type: cell-based; conditions: HeLa cancer cells
Protocol: (§1) This difference in drug performance can be explained by the difference in their mechanisms of action. […] The comet assay is an experiment that allows to see if the drug has a cytotoxic effect related to DNA fragmentation of the cells. This difference is visualized by the size of the “tails” of the “comets”, which is the fragmented DNA from the cells under study.
(§2) An analysis with a Wilcoxon test was performed to verify whether the means in the percentage of DNA in the comet tails of the different cell lines differ.
(§3) FIG. 2 depicts representative tail-DNA percentage data. (A) Microphotographs of the alkaline comet assay showing representative images of the CC cell lines and their negative control with their 18β and GA treatments of HeLa (HPV 18 cervical cancer) and HaCaT (HPV negative immortalized keratinocyte) (B) Comet assay data plot of Tail-DNA percentage **P<0.43 for HaCaT and P<2^−16. Larger comets for 18β treatment are observed.

C-33A cells = assay: Cell survival inhibition assay, C-33A; assay type: cell-based; conditions: C-33A (HPV-negative cervical carcinoma), 24 hours, 10-100 μM
Protocol: (§4) In this sense, a cell survival inhibition assay of different cell lines was carried out when exposed for hours 24 to one of the two drugs from FIG. 1. In this experiment, four cell lines were tested: HeLa, which are cell lines representative of cancer and HPV-18 infection, SiHa which are cells representative of cervical cancer with HPV-16 infection, C-33A which are cells representative of HPV-negative cervical carcinoma, and HaCaT, which are cancer and infection negative cells. The experiment consisted of exposing cells of the different cell lines to different concentrations of both drugs for 24 hours (10-100 μM) going in steps of 10 μM each.

[2] = cited from earlier work
[3] = cited from earlier work; remark: listed apart in the source
SiHa cells = assay: Cell survival inhibition assay, SiHa; assay type: cell-based; conditions: SiHa (HPV-16), 24 hours, 10-100 μM
Protocol: as §4

HeLa cells [4] = assay: Cell survival inhibition assay, HeLa; assay type: cell-based; conditions: HeLa (HPV-18), 24 hours, 10-100 μM
Protocol: as §4

HaCaT cells = assay: Alkaline comet assay (single cell electrophoresis), HaCaT; assay type: cell-based
Protocol: as §1, §2, §3

Hepatitis C virus (HCV) = conditions: by preventing the release of infectious viral particles; cited from earlier work

Row | DNA fragmentation (comet tails) (HaCaT cells; HaCaT healthy cells) | Compound | interference with Rotavirus replication (Rotavirus) | DNA fragmentation (comet tails) (HeLa cells [1]) | inhibition of cell survival (C-33A cells) | log P [2] | solubility in water [3] | inhibition of cell survival (SiHa cells) | inhibition of cell survival (HeLa cells [4]) | DNA fragmentation (comet tails) (HaCaT cells) | reduction of Hepatitis C virus (HCV) titers (Hepatitis C virus (HCV))
1 | – | CC1(C)[C@@H](O)CC[C@]2(C)[C@H]3C(=O)C=C4[C@@H]5C[C@@](C)(C(=O)O)CC[C@]5(C)CC[C@@]4(C)[C@]3(C)CC[C@@H]12 [Example 18β-GA, 18β-glycyrrhetinic acid] | up to 99% | considerable DNA fragmentation | greater effect than GA | 6.574 | insoluble in water | greater effect than GA | greater effect than GA | much less fragmentation | –
2 | do not present this fragmentation | CC1(C)[C@@H](O[C@H]2O[C@H](C(=O)O)[C@@H](O)[C@H](O)[C@H]2O[C@@H]2O[C@H](C(=O)O)[C@@H](O)[C@H](O)[C@H]2O)CC[C@]2(C)[C@H]3C(=O)C=C4[C@@H]5C[C@@](C)(C(=O)O)CC[C@]5(C)CC[C@@]4(C)[C@]3(C)CC[C@@H]12 [GA, Glycyrrhizic acid] | – | do not present this fragmentation | minor effect | – | – | no effect | minor effect | – | 50%
